Where “and” joins values, the source holds several entries; their conditions need not be identical. Identical values can stand only once. Inconclusive results and toxic doses are left out.
Test system: L1210 leukemia ip in BDF1 mice, survival T/C
Assay: NCI In Vivo Anticancer Drug Screen. Data for tumor model L1210 Leukemia (intraperitoneal) in B6D2F1 (BDF1) mice
Conditions: endpoint: mean survival time, higher = longer survival
In short: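 In this screen, tumor-bearing mice given compound are compared to those given vehicle, and their survival values are reported as a treated-to-control quotient.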

[1] = dose: 100.0 mg/kg/injection, schedule: Q01DX009 (ip), vehicle: saline with Tween-80
[2] = dose: 200.0 mg/kg/injection, schedule: Q01DX009 (ip), vehicle: saline with Tween-80
[3] = dose: 100.0 mg/kg/injection, schedule: Q01DX001 (ip), vehicle: carboxymethylcellulose (CMC)
[4] = dose: 200.0 mg/kg/injection, schedule: Q01DX001 (ip), vehicle: carboxymethylcellulose (CMC)
[5] = dose: 400.0 mg/kg/injection, schedule: Q01DX001 (ip), vehicle: carboxymethylcellulose (CMC)
[6] = dose: 100.0 mg/kg/injection, schedule: Q04DX002 (ip), vehicle: saline
[7] = dose: 200.0 mg/kg/injection, schedule: Q04DX002 (ip), vehicle: saline
[8] = dose: 400.0 mg/kg/injection, schedule: Q04DX002 (ip), vehicle: saline

For `O=C1C=CC(=O)N1c1ccc([N+](=O)[O-])cc1`, the T/C (dose: 0.78 mg/kg/injection, schedule: Q04DX003 (ip), vehicle: Klucel (hydroxypropylcellulose) (HPC)) was 107 % of control, the T/C (dose: 1.56 mg/kg/injection, schedule: Q01DX009 (ip), vehicle: Klucel (hydroxypropylcellulose) (HPC)) was 97 % of control and the T/C (dose: 1.56 mg/kg/injection, schedule: Q04DX003 (ip), vehicle: Klucel (hydroxypropylcellulose) (HPC)) was 93 % of control. For the same compound, the T/C (dose: 3.12 mg/kg/injection, schedule: Q01DX009 (ip), vehicle: Klucel (hydroxypropylcellulose) (HPC)) was 92 % of control, the T/C (dose: 3.12 mg/kg/injection, schedule: Q04DX003 (ip), vehicle: Klucel (hydroxypropylcellulose) (HPC)) was 91 % of control and the T/C (dose: 6.25 mg/kg/injection, schedule: Q01DX009 (ip), vehicle: Klucel (hydroxypropylcellulose) (HPC)) was 92 % of control. The T/C (dose: 6.25 mg/kg/injection, schedule: Q04DX003 (ip), vehicle: Klucel (hydroxypropylcellulose) (HPC)) was 92 % of control, the T/C (dose: 9.2 mg/kg/injection, schedule: Q01DX009 (ip), vehicle: Klucel (hydroxypropylcellulose) (HPC)) was 92 % of control and the T/C (dose: 14.0 mg/kg/injection, schedule: Q01DX009 (ip), vehicle: Klucel (hydroxypropylcellulose) (HPC)) was 90 % of control. The T/C (dose: 21.0 mg/kg/injection, schedule: Q01DX009 (ip), vehicle: Klucel (hydroxypropylcellulose) (HPC)) was 95 % of control.

For `O=C(O)C(Br)C(Br)C(=O)Nc1ccc(F)cc1` (stereo unspecified), the T/C (dose: 100.0 mg/kg/injection, schedule: Q04DX002 (ip), vehicle: saline with Tween-80) was 104 % of control and the T/C (dose: 200.0 mg/kg/injection, schedule: Q04DX002 (ip), vehicle: saline with Tween-80) was 93 % of control.

For `O=C(c1ccccc1)C1(c2ccccc2)CCP(c2ccccc2)(c2ccccc2)(c2ccccc2)O1` (stereo unspecified), the T/C (dose: 15.0 mg/kg/injection, schedule: Q01DX001 (ip), vehicle: carboxymethylcellulose (CMC)) was 93 % of control, the T/C (dose: 30.0 mg/kg/injection, schedule: Q01DX001 (ip), vehicle: carboxymethylcellulose (CMC)) was 95 % of control and the T/C (dose: 60.0 mg/kg/injection, schedule: Q01DX001 (ip), vehicle: carboxymethylcellulose (CMC)) was 96 % of control.

With `CC12CCC3c4ccc(Oc5ccc(N)cc5)cc4CCC3C1CCC2=O` (stereo unspecified) the T/C (dose: 100.0 mg/kg/injection, schedule: Q01DX001 (sc), vehicle: steriod suspending solution) was 101 % of control, the T/C (dose: 200.0 mg/kg/injection, schedule: Q01DX001 (sc), vehicle: steriod suspending solution) was 95 % of control and the T/C (dose: 400.0 mg/kg/injection, schedule: Q01DX001 (sc), vehicle: steriod suspending solution) was 101 % of control.

`O=C(CCl)c1ccc(Oc2ccc(C(=O)CCl)cc2)cc1` was tested, and the T/C (dose: 50.0 mg/kg/injection, schedule: Q01DX001 (ip), vehicle: saline) was 100 % of control, the T/C (dose: 100.0 mg/kg/injection, schedule: Q01DX001 (ip), vehicle: saline) was 97 % of control and the T/C (dose: 200.0 mg/kg/injection, schedule: Q01DX001 (ip), vehicle: saline) was 97 % of control. For the same compound, the T/C (dose: 400.0 mg/kg/injection, schedule: Q01DX001 (ip), vehicle: saline) was 105 % of control.

`O=C1OC(c2ccccc2)CC1N1CCCCC1` (stereo unspecified) was tested, and the T/C (dose: 100.0 mg/kg/injection, schedule: Q01DX001 (ip), vehicle: saline sonified) was 109 % of control and the T/C (dose: 200.0 mg/kg/injection, schedule: Q01DX001 (ip), vehicle: saline sonified) was 105 % of control.

`Cc1cccc(NCc2ccc(Cl)cc2Cl)c1` was tested, and the T/C (dose: 50.0 mg/kg/injection, schedule: Q01DX009 (ip), vehicle: saline with Tween-80) was 106 % of control, the T/C [1] was 103 % of control and the T/C (dose: 100.0 mg/kg/injection, schedule: Q04DX003 (ip), vehicle: saline with Tween-80) was 93 % of control and 88 % of control. For the same compound, the T/C [2] was 98 % of control, the T/C (dose: 200.0 mg/kg/injection, schedule: Q04DX003 (ip), vehicle: saline with Tween-80) was 95 % of control and the T/C (dose: 400.0 mg/kg/injection, schedule: Q04DX003 (ip), vehicle: saline with Tween-80) was 96 % of control and 101 % of control.

In the case of `OC1CCc2c(Cl)sc(Cl)c21` (stereo unspecified), the T/C (dose: 400.0 mg/kg/injection, schedule: Q01DX001 (ip), vehicle: saline with Tween-80) is reported as 98 % of control.

In the case of `O=C1c2ccccc2C(=O)N1O`, the T/C (dose: 50.0 mg/kg/injection, schedule: Q01DX001 (ip), vehicle: carboxymethylcellulose (CMC)) is reported as 95 % of control, the T/C [3] is reported as 90 % of control and the T/C [4] is reported as 95 % of control.

In the case of `c1ccc2oc(N3CCN(c4nc5ccccc5o4)CC3)nc2c1`, the T/C [3] is reported as 102 % of control, the T/C [4] is reported as 91 % of control and the T/C [5] is reported as 88 % of control.

For `CCOCc1cccc(C(=O)NCCCc2c(-c3ccccc3)nc(N)[nH]c2=O)c1`, the T/C (dose: 36.2 mg/kg/injection, schedule: Q01DX001 (ip), vehicle: Klucel (hydroxypropylcellulose) (HPC)) was 94 % of control, the T/C (dose: 62.5 mg/kg/injection, schedule: Q01DX001 (ip), vehicle: Klucel (hydroxypropylcellulose) (HPC)) was 105 % of control and the T/C (dose: 125.0 mg/kg/injection, schedule: Q01DX001 (ip), vehicle: Klucel (hydroxypropylcellulose) (HPC)) was 98 % of control.

For `O=P(O)(O)CCC(O)CO` (stereo unspecified), the T/C [6] was 94 % of control, the T/C [7] was 97 % of control and the T/C [8] was 102 % of control.

`O=c1ccccn1CC1(c2ccccc2)OCCO1` was tested, and the T/C (dose: 100.0 mg/kg/injection, schedule: Q01DX009 (ip), vehicle: Klucel (hydroxypropylcellulose) (HPC)) was 98 % of control, the T/C (dose: 100.0 mg/kg/injection, schedule: Q04DX003 (ip), vehicle: Klucel (hydroxypropylcellulose) (HPC)) was 102 % of control and the T/C (dose: 200.0 mg/kg/injection, schedule: Q01DX009 (ip), vehicle: Klucel (hydroxypropylcellulose) (HPC)) was 104 % of control. The T/C (dose: 200.0 mg/kg/injection, schedule: Q04DX003 (ip), vehicle: Klucel (hydroxypropylcellulose) (HPC)) was 96 % of control, the T/C (dose: 400.0 mg/kg/injection, schedule: Q01DX009 (ip), vehicle: Klucel (hydroxypropylcellulose) (HPC)) was 100 % of control and the T/C (dose: 400.0 mg/kg/injection, schedule: Q04DX003 (ip), vehicle: Klucel (hydroxypropylcellulose) (HPC)) was 94 % of control.

With `CCCCCCCCCCCCCCCCCCCC(=O)CCl` the T/C (dose: 100.0 mg/kg/injection, schedule: Q04DX002 (sc), vehicle: olive oil, sesame oil, peanut oil) was 104 % of control, the T/C (dose: 200.0 mg/kg/injection, schedule: Q04DX002 (sc), vehicle: olive oil, sesame oil, peanut oil) was 100 % of control and the T/C (dose: 400.0 mg/kg/injection, schedule: Q04DX002 (sc), vehicle: olive oil, sesame oil, peanut oil) was 107 % of control.

`O=NN(CCCl)C(=O)NC1CCSc2ccccc21` (stereo unspecified) was tested, and the T/C (dose: 18.0 mg/kg/injection, schedule: Q01DX001 (ip), vehicle: other) was 170 % of control and 182 % of control and 219 % of control, the T/C (dose: 26.0 mg/kg/injection, schedule: Q01DX001 (ip), vehicle: other) was 232 % of control and the T/C (dose: 27.0 mg/kg/injection, schedule: Q01DX001 (ip), vehicle: other) was 306 % of control and 315 % of control. The T/C (dose: 40.0 mg/kg/injection, schedule: Q01DX001 (ip), vehicle: other) was 323 % of control and 340 % of control and 356 % of control, the T/C (dose: 60.0 mg/kg/injection, schedule: Q01DX001 (ip), vehicle: other) was 289 % of control and 313 % of control and 365 % of control and the T/C (dose: 187.5 mg/kg/injection, schedule: Q01DX001 (ip), vehicle: other) was 96 % of control.

In the case of `Cc1c(Cl)ccc2c(C(=O)O)cc(-c3ccc(Cl)cc3)nc12`, the T/C [3] is reported as 100 % of control, the T/C [4] is reported as 94 % of control and the T/C [5] is reported as 92 % of control.

For `CCC(N)CC`, the T/C (dose: 75.0 mg/kg/injection, schedule: Q01DX009 (ip), vehicle: saline) was 104 % of control, the T/C (dose: 100.0 mg/kg/injection, schedule: Q04DX003 (ip), vehicle: saline) was 105 % of control and the T/C (dose: 150.0 mg/kg/injection, schedule: Q01DX009 (ip), vehicle: saline) was 96 % of control and 100 % of control. The T/C (dose: 200.0 mg/kg/injection, schedule: Q04DX003 (ip), vehicle: saline) was 103 % of control.

`Cc1ccc(C/C(Cc2ccccc2)=N/O)cc1` was tested, and the T/C (dose: 25.0 mg/kg/injection, schedule: Q04DX002 (ip), vehicle: Klucel (hydroxypropylcellulose) (HPC)) was 101 % of control, the T/C (dose: 50.0 mg/kg/injection, schedule: Q04DX002 (ip), vehicle: Klucel (hydroxypropylcellulose) (HPC)) was 111 % of control and the T/C (dose: 100.0 mg/kg/injection, schedule: Q04DX002 (ip), vehicle: Klucel (hydroxypropylcellulose) (HPC)) was 93 % of control. The T/C [6] was 111 % of control, the T/C (dose: 200.0 mg/kg/injection, schedule: Q04DX002 (ip), vehicle: Klucel (hydroxypropylcellulose) (HPC)) was 108 % of control and the T/C [7] was 97 % of control. For the same compound, the T/C [8] was 87 % of control.

For `CC(=O)Nc1ccc(-c2ccccc2)cc1`, the T/C (dose: 100.0 mg/kg/injection, schedule: Q01DX001 (ip), vehicle: Klucel (hydroxypropylcellulose) (HPC)) was 99 % of control, the T/C [1] was 110 % of control and the T/C (dose: 200.0 mg/kg/injection, schedule: Q01DX001 (ip), vehicle: Klucel (hydroxypropylcellulose) (HPC)) was 99 % of control. The T/C [2] was 86 % of control.
